Measured values: patent publication US9018187B2, “Cationic lipids and methods for the delivery of therapeutic agents” (Protiva Biotherapeutics, Inc., priority 2009, dated 2015)

Legend:
[1] = test system: liver ApoB mRNA; assay: Liver ApoB mRNA knockdown by 1:57 SNALP with APOB siRNA in mice; type: in vivo, mouse; details: for ApoB knockdown: similar study with 1:57 SNALP containing C2-TLinDMA (Example 16); for ApoB silencing activity (liver ApoB mRNA): 6:1 L:D, IV 0.1 mg/kg
Method: Each SNALP formulation was administered by intravenous (IV) injection at 0.1 mg/kg into female Balb/c mice (n=3 per group). Plasma total cholesterol and/or liver ApoB mRNA levels were evaluated at 48 hours after SNALP administration. For dose response studies, SNALP formulations were administered by IV injection at 0.01 mg/kg, 0.03 mg/kg, or 0.1 mg/kg into female Balb/c mice (n=3 per group). Liver ApoB mRNA levels were evaluated at 48 hours after SNALP administration.
1:57 SNALP formulations containing encapsulated APOB siRNA at a 6:1 lipid:drug (L:D) ratio were prepared with the following cationic lipids: (1) DLinDMA; (2) Linoleyl/Linolenyl DMA (“Lin/LenDMA”); (3) DPanDMA; (4) TLinDMA; (5) Linoleyl/C6:0 DMA (“Lin/6:0”); (6) C2-DPanDMA; (7) DLin-C2K-Pip (30H); and (8) DHep-C2K-DMA.
(§1) Each SNALP formulation was administered by intravenous (IV) injection at 0.1 mg/kg into female Balb/c mice (n=3 per group). Livers were colleted at 48 hours after SNALP administration and liver ApoB mRNA levels were evaluated by performing an ApoB/GAPDH QG assay. Table 2 provides a characterization of the SNALP formulations used in this in vivo study.
In another study, 1:57 SNALP formulations containing encapsulated APOB siRNA at a 6:1 L:D ratio were prepared with the following cationic lipids: (1) DLinDMA; (2) C2-DPanDMA; (3) DPan-C2K-DMA; (4) DPan-C3K-DMA; and (5) DPan-C1K6-DMA.
as §1, with “3” for “2”
For dose response studies, SNALP formulations were administered by IV injection at 0.01 mg/kg, 0.033 mg/kg, or 0.1 mg/kg into female Balb/c mice (n=3 per group). Liver ApoB mRNA levels were evaluated at 48 hours after SNALP administration by a branched DNA assay (QuantiGene assay) to assess ApoB mRNA relative to the housekeeping gene GAPDH.

[2] = TNS assay, apparent pKa of cationic lipid in 1:57 SNALP; details: 1:57 SNALP formulation containing encapsulated APOB siRNA
Method: 1:57 SNALP formulations containing encapsulated APOB siRNA were prepared as described in Section VI above with the following cationic lipids: (1) DLinDMA; (2) DLenDMA; (3) γ-DLenDMA (“g-DLenDMA”); (4) C2-DLinDAP; (5) DLinPip (4-OH); (6) DLinPip; (7) DLinPip (3-OH); (8) DLinDEA; (9) DDocDMA; (10) DAraDMA; (11) TLinDMA; (12) DLin-C2K Pip (30H); (13) DHep-C2K-DMA; (14) DPanDMA; (15) C2-DPanDMA (“DPan-C2-DMA”); (16) DPan-C2K-DMA; (17) DPan-C3K-DMA; (18) DPan-K6-DMA (“DPan-C1K6-DMA”); and (19) C2-TLinDMA.
The apparent pKa of the cationic lipids present in these SNALP formulations was determined using a 2-(p-toluidinyl)-naphthalene-6-sodium sulfonate (TNS) assay. TNS is a negatively-charged indicator of membrane potential that is electrostatically attracted to positively charged membranes (see, Bailey and Cullis, Biochemistry, 33 12573-80 (1994)). Subsequent adsorption to the lipid membrane results in the immediate environment of the TNS becoming more lipophilic, removing the water molecules that otherwise quench TNS fluorescence. As a result, TNS measures the surface potential of the particle, wherein the more positive the surface potential, the greater the level of fluorescence. The surface pKa values of each SNALP formulation were determined by varying the local pH in the presence of TNS. By plotting fluorescence versus pH, the pKa of the cationic lipid can be estimated in the particle as the pH where fluorescence equals 50% of total fluorescence.

[3] = Tolerability of 1:57 SNALP, liver enzyme levels; type: in vivo, mouse; details: FIG. 7, single IV bolus 10, 15 or 20 mg/kg, Balb/c mice, 48 hours post-injection, vs PBS control
Method: The tolerability of the 1:57 γ-DLenDMA SNALP formulation was evaluated with a single IV bolus injection of SNALP at either 10 mg/kg, 15 mg/kg, or 20 mg/kg in Balb/c mice (n=3 per group). Liver enzyme levels were measured at 48 hours post-injection.

[4] = test system: ApoB mRNA in ApoE−/− primary hepatocytes; assay: ApoB silencing in ApoE−/− primary hepatocytes after serum pre-incubation of SNALP; type: cell-based, mouse; details: FIGS. 12-14; 1:57 SNALP pre-incubated with C57 or ApoE−/− serum, 40-0.625 nM siRNA on hepatocytes, 24 hr
Method: ApoE−/− primary hepatocytes were isolated and plated at 2.5×10^4 cells/well. Each SNALP formulation was pre-incubated with 50% C57 (ApoE-containing) serum or ApoE−/− serum at siRNA concentrations of 4000-62.5 nM for 1 hr at 37° C. Samples were then diluted to 40-0.625 nM on the hepatocytes for 24 hr. After 24 hr, cells were lysed and ApoB and GAPD mRNA levels were measured via bDNA (QG) assay.

[5] = Characterization of SNALP formulations (size, polydispersity, encapsulation); type: physicochemical; details: Table 5; for Initial Encaps. (%): 7:54 SNALP (PEG750-C-DMA 6.76 | cationic 54.06 | Chol 32.43 | DPPC 6.75 mol %) with PLK-1 siRNA; for Finished Product Encaps. (%) / Finished Product Poly / Finished Product Z-Avg (nm): 7:54 SNALP with PLK-1 siRNA
Method: In the context of nucleic acids, full encapsulation may be determined by performing a membrane-impermeable fluorescent dye exclusion assay, which uses a dye that has enhanced fluorescence when associated with nucleic acid. Specific dyes such as OliGreen® and RiboGreen® (Invitrogen Corp.; Carlsbad, Calif.) are available for the quantitative determination of plasmid DNA, single-stranded deoxyribonucleotides, and/or single- or double-stranded ribonucleotides. Encapsulation is determined by adding the dye to a liposomal formulation, measuring the resulting fluorescence, and comparing it to the fluorescence observed upon addition of a small amount of nonionic detergent. Detergent-mediated disruption of the liposomal bilayer releases the encapsulated nucleic acid, allowing it to interact with the membrane-impermeable dye. Nucleic acid encapsulation may be calculated as E=(Io−I)Io, where I and Io refer to the fluorescence intensities before and after the addition of detergent (see, Wheeler et al., Gene Ther., 6:271-281 (1999)). […]
Each SNALP formulation was administered by intravenous (IV) injection at 3 mg/kg into Scid mice containing Hep3B tumors (n=4 per group). Tumor tissue was colleted at 24 hours after SNALP administration and tumor PLK-1 mRNA levels were evaluated by performing a PLK-1/GAPDH QG assay. Table 5 provides a characterization of the SNALP formulations used in this in vivo study.

[6] = Example 16, FIG. 8, 1:57 SNALP, female Balb/c mice, 48 hours, ApoB/GAPDH QG assay
[7] = Example 16 second study, FIG. 9, 1:57 SNALP, female Balb/c mice, 48 hours

pKa [2] | Initial Encaps. (%) [5] | Finished Product Encaps. (%) [5] | Finished Product Poly [5] | Finished Product Z-Avg (nm) [5] | SMILES | further results
~5.65 |  |  |  |  | CCCCC/C=C\C/C=C\C/C=C\C/C=C\CCCCOCC(CN(C)C)OCCCC/C=C\C/C=C\C/C=C\C/C=C\CCCCC (stereo not drawn) [DAraDMA, 1,2-Diarachidonyloxy-(N,N-dimethyl)-propyl-3-amine] | 
~5.65 |  |  |  |  | CC/C=C\C/C=C\C/C=C\C/C=C\C/C=C\C/C=C\CCCOCC(CN(C)C)OCCC/C=C\C/C=C\C/C=C\C/C=C\C/C=C\C/C=C\CC (stereo not drawn) [DDocDMA, 1,2-Didocosahexaenyloxy-(N,N-dimethyl)-propyl-3-amine] | 
~6.05 |  |  |  |  | CCCCCCCC/C=C/CCCCCCCC1(CCCCCCC/C=C/CCCCCCCC)OCC(CCN(C)C)O1 (stereo not drawn) [DHep-C2K-DMA] | ApoB silencing activity (liver ApoB mRNA) [1, 6]: comparable to DLinDMA with respect to silencing activity
 | 56% | 98% | 0.05 | 84 nm | CCCCC/C=C\C/C=C\CCCCCCCCC1(CCCCCCCC/C=C\C/C=C\CCCCC)OCC(CN(C)C)O1 (stereo not drawn) [DLin-C1K-DMA, reference compound] | 
~6.05 |  |  |  |  | CCCCC/C=C\C/C=C\CCCCCCCCC1(CCCCCCCC/C=C\C/C=C\CCCCC)OCC(CCN2CCCC(O)C2)O1 (stereo not drawn) [DLin-C2K Pip (30H)] | 
 | 75% | 98% | 0.08 | 74 nm | CCCCC/C=C\C/C=C\CCCCCCCCOCC(CN(C)C)OCCCCCCCC/C=C\C/C=C\CCCCC (stereo not drawn) [DLinDMA, 1,2-dilinoleyloxy-N,N-dimethylaminopropane, reference compound] | ApoB knockdown [1]: 25%
~5.5 | 71% | 99% | 0.06 | 80 nm | CC(C)CCCC(C)CCCC(C)CCCC(C)CCC1(CCC(C)CCCC(C)CCCC(C)CCCC(C)C)OCC(CN(C)C)CO1 (stereo not drawn) [DPan-C1K6-DMA] | 
~5.95 | 84% | 100% | 0.08 | 76 nm | CC(C)CCCC(C)CCCC(C)CCCC(C)CCC1(CCC(C)CCCC(C)CCCC(C)CCCC(C)C)OCC(CCN(C)C)O1 (stereo not drawn) [DPan-C2K-DMA] | ApoB silencing activity (liver ApoB mRNA) [1, 7]: more potent compared to DLinDMA
~6.25 | 86% | 100% | 0.06 | 81 nm | CC(C)CCCC(C)CCCC(C)CCCC(C)CCC1(CCC(C)CCCC(C)CCCC(C)CCCC(C)C)OCC(CCCN(C)C)O1 (stereo not drawn) [DPan-C3K-DMA] | ApoB silencing activity (liver ApoB mRNA) [1, 7]: more potent compared to DLinDMA
~5.35 | 70% | 100% | 0.07 | 126 nm | CCCCC/C=C\C/C=C\CCCCCCCCOCC(COCC(CN(C)C)OCCCCCCCC/C=C\C/C=C\CCCCC)OCCCCCCCC/C=C\C/C=C\CCCCC (stereo not drawn) [TLinDMA, 1-(2,3-linoleyloxypropoxy)-2-(linoleyloxy)-(N,N-dimethyl)-propyl-3-amine] | ApoB silencing activity (liver ApoB mRNA) [1, 6]: silencing activity that was comparable to DLinDMA

Continued, compound first:

SMILES | pKa [2] | Initial Encaps. (%) [5] | Finished Product Encaps. (%) [5] | Finished Product Poly [5] | Finished Product Z-Avg (nm) [5] | further results
CCCCC/C=C\C/C=C\CCCCCCCCOCC(COCC(CCN(C)C)OCCCCCCCC/C=C\C/C=C\CCCCC)OCCCCCCCC/C=C\C/C=C\CCCCC (stereo not drawn) [Compound C2-TLinDMA] | ~5.85 |  |  |  |  | ApoB knockdown [1]: 49%
CC/C=C\C/C=C\C/C=C\CCCCCCCCC1(CCCCCCCC/C=C\C/C=C\C/C=C\CC)OCC(CCN(C)C)O1 (stereo not drawn) [DLen-C2K-DMA] |  |  |  |  |  | liver ApoB mRNA knockdown activity ([1]; Example 17, FIG. 10, 1:57 SNALP, IV 0.01, 0.033 or 0.1 mg/kg, female Balb/c mice, 48 hours, QuantiGene assay vs GAPDH): considerable potency in silencing ApoB mRNA expression
CC/C=C\C/C=C\C/C=C\CCCCCCCCOCC(CN(C)C)OCCCCCCCC/C=C\C/C=C\C/C=C\CC (stereo not drawn) [DLenDMA, 1,2-dilinolenyloxy-N,N-dimethylaminopropane, reference compound] |  |  |  |  |  | liver enzyme levels [3]: did not significantly elevate liver enzyme levels; ApoB silencing activity and its dependence on ApoE [4]: greatest levels of silencing activity when ApoE-containing serum was present
CCCCC/C=C\C/C=C\CCCCCCCCC1(CCCCCCCC/C=C\C/C=C\CCCCC)OCC(CCCN(C)C)O1 (stereo not drawn) [DLin-C3K-DMA] |  |  |  |  |  | ApoB silencing activity and its dependence on ApoE [4]: less dependent on ApoE compared to other formulations tested
CCCCCC=CCC=CCCCCCCCCC1(CCCCCCCC/C=C\C/C=C\CCCCC)OCC(CCCCN(C)C)O1 (stereo not drawn) [DLin-C4K-DMA] |  |  |  |  |  | ApoB silencing activity and its dependence on ApoE [4]: less dependent on ApoE compared to other formulations tested
CC/C=C\C/C=C\C/C=C\CCCCCCCCOC(COCCCCCCCC/C=C\C/C=C\CCCCC)CN(C)C (stereo not drawn) [Linoleyl/Linolenyl DMA] |  |  |  |  |  | liver ApoB mRNA knockdown activity (silencing ApoB expression) ([1]; Example 14, FIGS. 3-6, 1:57 SNALP with APOB siRNA, IV 0.1 mg/kg (dose response 0.01, 0.03, 0.1 mg/kg), female Balb/c mice, 48 hours): greater ApoB silencing activity compared to a SNALP formulation containing DLinDMA; ApoB silencing activity (liver ApoB mRNA) [1, 6]: more potent silencing activity than DLinDMA
CCCCC/C=C\C/C=C\C/C=C\CCCCCC1(CCCCC/C=C\C/C=C\C/C=C\CCCCC)OCC(CCN(C)C)O1 (stereo not drawn) [g-DLen-C2K-DMA] |  |  |  |  |  | KD50 value ([1]; Example 17, FIG. 10, liver ApoB mRNA knockdown dose response): identical KD50 value compared to a SNALP formulation containing C2K
CCCCC/C=C\C/C=C\C/C=C\CCCCCOCC(CN(C)C)OCCCCC/C=C\C/C=C\C/C=C\CCCCC (stereo not drawn) [γ-DLenDMA, 1,2-Di-γ-linolenyloxy-N,N-dimethylaminopropane] |  |  |  |  |  | liver enzyme levels [3]: did not significantly elevate liver enzyme levels
